Organism: Rattus norvegicus
Assay: Open TG-GATES - Regimen: Single
Assay type: toxicity, organism-based, Sprague-Dawley
Set-up: regimen Single, gender Male, age 6 weeks
Conditions: in vivo, po, 1000 mg/kg, route gavage, dose level Middle; for APTT / Bas / Eos / Fbg / Hb / Ht / Lym / MCH / MCHC / MCV / Mono / Neu / PT / Plat / RBC / Ret / WBC: tissue Blood; for KIDNEY_L / KIDNEY_R / KIDNEY_TOTAL: tissue Kidney; for LIVER: tissue Liver; for A/G / ALP / ALT / AST / BUN / CRE / Ca / Cl / DBIL / GLC / IP / K / LDH / Na / PL / RALB / TBIL / TC / TG / TP / gamma-GTP: tissue Plasma

For `CCN1CCCC1CNC(=O)c1cc(S(N)(=O)=O)ccc1OC` (configuration not stated) [SULPIRIDE], the TERMINAL_BW (3 h) was 201.4 g, the APTT (3 h) was 17.3 s and the Bas (3 h) was 0%. For the same molecule, the Eos (3 h) was 0.6%, the Fbg (3 h) was 253.4 mg/dL and the Hb (3 h) was 12.6 g/dL. For the same molecule, the Ht (3 h) was 39.6%, the Lym (3 h) was 78.4% and the MCH (3 h) was 20.8 pg. The MCHC (3 h) was 31.8%, the MCV (3 h) was 65.2 fL and the Mono (3 h) was 3.4%. It also gave a Neu (3 h) of 16.8%, a PT (3 h) of 13.6 s and a Plat (3 h) of 109.3 x10_4/uL. It also gave an RBC (3 h) of 608 x10_4/ul, a Ret (3 h) of 8.1% and a WBC (3 h) of 83.5 x10_2/uL. The KIDNEY_L (3 h) was 0.9 g, the KIDNEY_R (3 h) was 0.9 g and the KIDNEY_TOTAL (3 h) was 1.8 g. The LIVER (3 h) was 9.2 g, the A/G (3 h) was 0.9 and the ALP (3 h) was 1375.8 IU/L. The ALT (3 h) was 36.6 IU/L, the AST (3 h) was 74.2 IU/L and the BUN (3 h) was 10.4 mg/dL. It also gave a CRE (3 h) of 0.2 mg/dL, a Ca (3 h) of 10.8 mg/dL and a Cl (3 h) of 106.6 meq/L. For the same molecule, the DBIL (3 h) was 0.004 mg/dL, the GLC (3 h) was 169.8 mg/dL and the IP (3 h) was 8.2 mg/dL. It also gave a K (3 h) of 4 meq/L, an LDH (3 h) of 116.6 IU/L and a Na (3 h) of 142.6 meq/L. For the same molecule, the PL (3 h) was 126.2 mg/dL, the RALB (3 h) was 2.4 g/dL and the TBIL (3 h) was 0.068 mg/dL. The TC (3 h) was 63.4 mg/dL, the TG (3 h) was 54.2 mg/dL and the TP (3 h) was 5.1 g/dL. For the same molecule, the gamma-GTP (3 h) was 1.8 IU/L, the TERMINAL_BW (6 h) was 201.9 g and the APTT (6 h) was 18.2 s. For the same molecule, the Bas (6 h) was 0.2%, the Eos (6 h) was 0.8% and the Fbg (6 h) was 279.2 mg/dL. For the same molecule, the Hb (6 h) was 13.1 g/dL, the Ht (6 h) was 40.9% and the Lym (6 h) was 79.6%. It also gave an MCH (6 h) of 20.9 pg, an MCHC (6 h) of 32.1% and an MCV (6 h) of 65.2 fL. It also gave a Mono (6 h) of 3%, a Neu (6 h) of 15.8% and a PT (6 h) of 13.5 s. For the same molecule, the Plat (6 h) was 123.7 x10_4/uL, the RBC (6 h) was 628.2 x10_4/ul and the Ret (6 h) was 8.4%. It also gave a WBC (6 h) of 61.1 x10_2/uL, a KIDNEY_L (6 h) of 0.9 g and a KIDNEY_R (6 h) of 0.9 g. For the same molecule, the KIDNEY_TOTAL (6 h) was 1.7 g, the LIVER (6 h) was 8.4 g and the A/G (6 h) was 0.9. The ALP (6 h) was 1420 IU/L, the ALT (6 h) was 35.2 IU/L and the AST (6 h) was 69.8 IU/L. It also gave a BUN (6 h) of 8 mg/dL, a CRE (6 h) of 0.2 mg/dL and a Ca (6 h) of 10.7 mg/dL. It also gave a Cl (6 h) of 107.4 meq/L, a DBIL (6 h) of 0.006 mg/dL and a GLC (6 h) of 175 mg/dL. For the same molecule, the IP (6 h) was 8.9 mg/dL, the K (6 h) was 4.1 meq/L and the LDH (6 h) was 101.8 IU/L. It also gave a Na (6 h) of 142 meq/L, a PL (6 h) of 137.8 mg/dL and an RALB (6 h) of 2.4 g/dL. For the same molecule, the TBIL (6 h) was 0.07 mg/dL, the TC (6 h) was 76.2 mg/dL and the TG (6 h) was 45.6 mg/dL. It also gave a TP (6 h) of 5.1 g/dL, a gamma-GTP (6 h) of 1.4 IU/L and a TERMINAL_BW (9 h) of 201.7 g. It also gave an APTT (9 h) of 17.2 s, a Bas (9 h) of 0% and an Eos (9 h) of 1%. It also gave a Fbg (9 h) of 308 mg/dL, a Hb (9 h) of 13.7 g/dL and a Ht (9 h) of 43%. The Lym (9 h) was 71.2%, the MCH (9 h) was 20.7 pg and the MCHC (9 h) was 31.8%. For the same molecule, the MCV (9 h) was 65 fL, the Mono (9 h) was 3.6% and the Neu (9 h) was 23.8%. It also gave a PT (9 h) of 13.3 s, a Plat (9 h) of 131.4 x10_4/uL and an RBC (9 h) of 661 x10_4/ul. The Ret (9 h) was 7.7%, the WBC (9 h) was 64.3 x10_2/uL and the KIDNEY_L (9 h) was 0.9 g. It also gave a KIDNEY_R (9 h) of 0.9 g, a KIDNEY_TOTAL (9 h) of 1.8 g and an LIVER (9 h) of 8.3 g. It also gave an A/G (9 h) of 0.9, an ALP (9 h) of 1435.8 IU/L and an ALT (9 h) of 28.6 IU/L. For the same molecule, the AST (9 h) was 63.2 IU/L, the BUN (9 h) was 7.6 mg/dL and the CRE (9 h) was 0.2 mg/dL. For the same molecule, the Ca (9 h) was 10.7 mg/dL, the Cl (9 h) was 107.6 meq/L and the DBIL (9 h) was 0.002 mg/dL. The GLC (9 h) was 178.2 mg/dL, the IP (9 h) was 9.7 mg/dL and the K (9 h) was 4 meq/L. It also gave an LDH (9 h) of 106.2 IU/L, a Na (9 h) of 141.6 meq/L and a PL (9 h) of 151 mg/dL. For the same molecule, the RALB (9 h) was 2.5 g/dL, the TBIL (9 h) was 0.066 mg/dL and the TC (9 h) was 83.8 mg/dL. For the same molecule, the TG (9 h) was 65.2 mg/dL, the TP (9 h) was 5.3 g/dL and the gamma-GTP (9 h) was 1.2 IU/L. The TERMINAL_BW (24 h) was 214.6 g, the APTT (24 h) was 17.3 s and the Bas (24 h) was 0%. For the same molecule, the Eos (24 h) was 1%, the Fbg (24 h) was 290.8 mg/dL and the Hb (24 h) was 13.9 g/dL. The Ht (24 h) was 42.1%, the Lym (24 h) was 77.8% and the MCH (24 h) was 20.7 pg. For the same molecule, the MCHC (24 h) was 32.9%, the MCV (24 h) was 62.9 fL and the Mono (24 h) was 2.4%. It also gave a Neu (24 h) of 18.4%, a PT (24 h) of 12.8 s and a Plat (24 h) of 123 x10_4/uL. For the same molecule, the RBC (24 h) was 670.2 x10_4/ul, the Ret (24 h) was 6.7% and the WBC (24 h) was 66.8 x10_2/uL. It also gave a KIDNEY_L (24 h) of 0.9 g, a KIDNEY_R (24 h) of 0.9 g and a KIDNEY_TOTAL (24 h) of 1.9 g. The LIVER (24 h) was 9.4 g, the A/G (24 h) was 0.9 and the ALP (24 h) was 1599.4 IU/L. For the same molecule, the ALT (24 h) was 46 IU/L, the AST (24 h) was 67.6 IU/L and the BUN (24 h) was 17.2 mg/dL. It also gave a CRE (24 h) of 0.2 mg/dL, a Ca (24 h) of 11.2 mg/dL and a Cl (24 h) of 105.2 meq/L. For the same molecule, the DBIL (24 h) was 0.018 mg/dL, the GLC (24 h) was 178.8 mg/dL and the IP (24 h) was 8.6 mg/dL. For the same molecule, the K (24 h) was 4.4 meq/L, the LDH (24 h) was 145.4 IU/L and the Na (24 h) was 142 meq/L. It also gave a PL (24 h) of 157.6 mg/dL, an RALB (24 h) of 2.6 g/dL and a TBIL (24 h) of 0.056 mg/dL. The TC (24 h) was 83 mg/dL, the TG (24 h) was 112.4 mg/dL and the TP (24 h) was 5.7 g/dL. The gamma-GTP (24 h) was 1 IU/L.

From ChEMBL document CHEMBL3885861, “Open TG-GATES”
